In US20220348658A1, “ANTI-T CELL ANTIGEN-BINDING MOLECULE TO BE USED IN COMBINATION WITH CYTOKINE INHIBITOR” (Chugai Seiyaku Kabushiki Kaisha, priority 2019, published 2022):

Tests used:
[1] = Simulation of serum Tocilizumab concentration with population pharmacokinetic models (Frey et al.; Gibiansky et al.); conditions: set from the Frey and Gibiansky models
Protocol: (§1) FIG. 5A is a simulation of changes in serum Tocilizumab concentration when Tocilizumab is administered at 8 mg/kg (intravenous administration: IV) on Day 0, based on the population pharmacokinetic model reported in the article by Frey et al. The vertical axis represents the serum Tocilizumab concentration (μg/mL), and the horizontal axis represents the number of days after administration of Tocilizumab.
as §1, with “5B” for “5A”, “(IV)” for “(intravenous administration: IV)”, “Gibiansky” for “Frey”
FIG. 6A is a simulation of changes in serum Tocilizumab concentration when Tocilizumab is intravenously administered (IV) at 8 mg/kg on Day 0, based on the population pharmacokinetic model reported in the article by Frey et al. The vertical axis represents the serum Tocilizumab concentration (μg/mL), and the horizontal axis represents the number of days after administration of Tocilizumab. […]

[2] = tested on: patients who manifested CRS after ERY974 administration; test: ERY101EG study: use of Tocilizumab for the treatment of CRS; assay type: in vivo, human
Protocol: In the ERY101EG study, Tocilizumab was used alone or in combination with a steroid and such for the treatment of CRS in some patients at the discretion of the clinical trial investigator (Table 11). The severity of CRS ranged from Grade 1 to Grade 3. Tocilizumab was administered on the same day as the manifestation of CRS, with the exception of two patients, two cases (cohort 10A, 840010006, 840010007). In all of the Tocilizumab-administered cases, CRS recovered four days after the day of Tocilizumab administration.

IL-6R [3] = biological target: T1, IL-6R (Homo sapiens, UniProt P08887); conditions: cited from earlier work
T1 construct: host or cells: population pharmacokinetic models of patients (Frey et al. 2010; Gibiansky and Frey 2012)
T1 sequence (P08887 20-468): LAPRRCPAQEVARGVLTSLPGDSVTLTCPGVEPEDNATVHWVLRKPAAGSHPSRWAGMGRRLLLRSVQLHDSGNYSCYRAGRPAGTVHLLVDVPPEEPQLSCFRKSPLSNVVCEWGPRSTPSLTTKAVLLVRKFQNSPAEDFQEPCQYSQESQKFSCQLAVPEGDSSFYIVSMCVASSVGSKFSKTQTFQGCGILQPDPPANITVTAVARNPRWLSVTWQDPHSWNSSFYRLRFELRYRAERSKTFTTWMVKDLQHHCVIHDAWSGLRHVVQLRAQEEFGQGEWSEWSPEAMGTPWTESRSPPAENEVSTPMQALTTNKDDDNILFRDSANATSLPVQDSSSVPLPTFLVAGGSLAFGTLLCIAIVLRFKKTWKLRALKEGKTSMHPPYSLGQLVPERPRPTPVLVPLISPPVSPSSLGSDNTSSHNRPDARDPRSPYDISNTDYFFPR

IL-6R [4] = biological target: T1, IL-6R; test: Population pharmacokinetic model: Michaelis coefficient (Km) for target-mediated elimination of Tocilizumab; conditions: theoretical, from the Km value of Frey et al.

For “Tocilizumab: humanized immunoglobulin G1 (IgG1) kappa anti-human IL-6R monoclonal antibody”, the “Estimated effective serum concentration (target concentration) of Tocilizumab” value [1] was 10 µg/mL, the “Recovery from CRS after the day of Tocilizumab administration” value ([2]; all Tocilizumab-administered cases, CRS Grade 1 to Grade 3, alone or with a steroid) was “four” and the “Duration from Tocilizumab administration to recovery from CRS” value (“Duration from Tocilizumab administration” for short) ([2]; patient 840010006, cohort 10A, CRS Grade 3 after 2nd ERY974 (0.81 μg/kg), Tocilizumab 8 mg/kg, 3 days after CRS manifestation) was 4 days. The “Duration from Tocilizumab administration” value ([2]; patient 840010006, cohort 10A, CRS Grade 3 after 3rd ERY974 (0.54 μg/kg), Tocilizumab 8 mg/kg, same day as CRS manifestation) was 3 days, the “Manifestation of CRS after Tocilizumab administration and until the next administration of this agent” value (“Manifestation of CRS” for short) ([2]; patient 840010006, cohort 10A, after 2nd ERY974 (0.81 μg/kg), Tocilizumab 8 mg/kg) was “None” and the “Presence or absence of CRS recurrence” value ([2]; patient 840010006, cohort 10A, 1 further ERY974 administration (0.54 μg/kg) after Tocilizumab 8 mg/kg) was “Present”. The “Duration from Tocilizumab administration” value ([2]; patient 840010007, cohort 10A, CRS Grade 2, Tocilizumab 8 mg/kg, 6 days after CRS manifestation) was 1 days, the “Presence or absence of CRS recurrence” value ([2]; patient 840010007, cohort 10A, 2 further ERY974 administrations (0.54, 0.81 μg/kg) after Tocilizumab 8 mg/kg) was “Absent” and the “Manifestation of CRS” value ([2]; patient 840010007, cohort 10A, Tocilizumab 8 mg/kg) was “None”. For the same substance, the “Duration from Tocilizumab administration” value ([2]; patient 840020017, cohort 8A, CRS Grade 2, Tocilizumab dose not known, same day as CRS manifestation) was 0 days, the “Presence or absence of CRS recurrence” value ([2]; patient 840020017, cohort 8A, 3 further ERY974 administrations (0.36 μg/kg) after Tocilizumab) was “Absent” and the “Manifestation of CRS” value ([2]; patient 840020017, cohort 8A, Tocilizumab dose not known) was “None”. The “Duration from Tocilizumab administration” value ([2]; patient 840020021, cohort 9A, CRS Grade 1, Tocilizumab 4 mg/kg, same day as CRS manifestation) was 0 days, the “Presence or absence of CRS recurrence” value ([2]; patient 840020021, cohort 9A, 9 further ERY974 administrations (0.54 μg/kg) after Tocilizumab 4 mg/kg) was “Absent” and the “Manifestation of CRS” value ([2]; patient 840020021, cohort 9A, Tocilizumab 4 mg/kg) was “None”. The “Duration from Tocilizumab administration” value ([2]; patient 840020022, cohort 9A, CRS Grade 2, Tocilizumab 4 mg/kg, within 2 hours from CRS manifestation) was 0 days, the “Presence or absence of CRS recurrence” value ([2]; patient 840020022, cohort 9A, 3 further ERY974 administrations (0.54 μg/kg) after Tocilizumab 4 mg/kg) was “Absent” and the “Manifestation of CRS” value ([2]; patient 840020022, cohort 9A, Tocilizumab 4 mg/kg) was “None”. The “Duration from Tocilizumab administration” value ([2]; patient 840020023, cohort 9B, CRS Grade 2, Tocilizumab 4 mg/kg, same day as CRS manifestation) was 0 days, the “Presence or absence of CRS recurrence” value ([2]; patient 840020023, cohort 9B, 19 further ERY974 administrations (0.54 μg/kg) after Tocilizumab 4 mg/kg) was “Absent” and the “Manifestation of CRS” value ([2]; patient 840020023, cohort 9B, Tocilizumab 4 mg/kg) was “None”. The “Duration from Tocilizumab administration” value ([2]; patient 840060002, cohort 8B, CRS Grade 2, Tocilizumab 8 mg/kg, same day as CRS manifestation) was 2 days, the “Presence or absence of CRS recurrence” value ([2]; patient 840060002, cohort 8B, 9 further ERY974 administrations (0.36 μg/kg) after Tocilizumab 8 mg/kg) was “Absent” and the “Manifestation of CRS” value ([2]; patient 840060002, cohort 8B, Tocilizumab 8 mg/kg) was “None”. For the same substance, the “Michaelis coefficient (Km) for target-mediated elimination” value (IL-6R [3]; article by Frey et al., patients with rheumatoid arthritis) was 2.7 µg/mL, the “Michaelis coefficient (Km value)” value (IL-6R [3]; article by Gibiansky et al.) was 0.367 µg/mL and the “Serum concentration of Tocilizumab required for binding to 80% or more of IL-6R” value (IL-6R [4]) was at least 10800 ng/mL.
